Our source for the Ki values is patent US7598245B2 (Vertex Pharmaceuticals Incorporated, priority 2003, dated 2009).

One assay deals with T1, Aurora-2 (Homo sapiens, UniProt O14965).
T1 construct: addition of 10 μL of Aurora-2 stock solution to give a final concentration of 70 nM
T1 sequence (O14965 1-403): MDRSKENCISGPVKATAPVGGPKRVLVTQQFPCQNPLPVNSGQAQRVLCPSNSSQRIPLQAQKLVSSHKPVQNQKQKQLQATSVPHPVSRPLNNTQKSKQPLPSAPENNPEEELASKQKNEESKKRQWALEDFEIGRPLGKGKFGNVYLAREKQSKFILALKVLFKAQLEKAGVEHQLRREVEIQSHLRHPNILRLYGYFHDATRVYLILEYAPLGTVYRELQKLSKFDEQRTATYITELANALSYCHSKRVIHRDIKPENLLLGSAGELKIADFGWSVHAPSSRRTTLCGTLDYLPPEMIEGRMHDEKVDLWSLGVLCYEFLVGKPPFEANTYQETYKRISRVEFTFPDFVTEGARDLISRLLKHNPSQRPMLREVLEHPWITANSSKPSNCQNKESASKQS
The experiment in a line: Inhibition of AUR-2, coupled enzyme assay. Type of assay: biochemical. On the procedure:
Compounds are screened in the following manner for their ability to inhibit Aurora-2 using a standard coupled enzyme assay (Fox et al (1998) Protein Sci 7, 2249). To an assay stock buffer solution containing 0.1M HEPES 7.5, 10 mM MgCl2, 1 mM DTT, 25 mM NaCl, 2.5 mM phosphoenolpyruvate, […], 30 mg/ml pyruvate kinase, 10 mg/ml lactate dehydrogenase, 40 mM ATP, and 800 μM peptide (LRRASLG, American Peptide, Sunnyvale, Calif.) is added a DMSO solution of a compound of the present invention to a final concentration of 30 μM. The resulting mixture is incubated at 30° C. for 10 min. The reaction was initiated by the addition of 10 μL of Aurora-2 stock solution to give a final concentration of 70 nM in the assay. The rates of reaction are obtained by monitoring absorbance at 340 nm over a 5 minute read time at 30° C. using a BioRad Ultramark plate reader (Hercules, Calif.). The Ki values are determined from the rate data as a function of inhibitor concentration.

Another assay has as its target T2, PDK-1 (Homo sapiens, UniProt O15530).
T2 sequence (O15530 1-556): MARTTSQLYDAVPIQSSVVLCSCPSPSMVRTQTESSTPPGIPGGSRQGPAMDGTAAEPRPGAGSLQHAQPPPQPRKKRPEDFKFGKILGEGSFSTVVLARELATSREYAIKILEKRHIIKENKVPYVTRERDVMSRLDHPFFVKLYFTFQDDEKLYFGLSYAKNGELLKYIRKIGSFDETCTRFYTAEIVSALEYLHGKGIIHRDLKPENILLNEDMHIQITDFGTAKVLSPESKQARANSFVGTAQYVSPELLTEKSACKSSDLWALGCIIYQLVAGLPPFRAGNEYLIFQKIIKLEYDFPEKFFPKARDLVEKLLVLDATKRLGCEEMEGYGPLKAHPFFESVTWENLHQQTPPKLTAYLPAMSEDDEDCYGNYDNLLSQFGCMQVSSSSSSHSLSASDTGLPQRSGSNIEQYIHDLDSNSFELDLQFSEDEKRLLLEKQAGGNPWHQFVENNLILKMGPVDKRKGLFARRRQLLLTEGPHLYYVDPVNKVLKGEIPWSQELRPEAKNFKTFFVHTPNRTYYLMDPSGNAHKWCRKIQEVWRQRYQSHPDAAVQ
As to the kind of experiment: PDK-1 inhibition, radioactive-phosphate incorporation assay. Conditions: 40 μM ATP. Format: biochemical. On the procedure:
Compounds were screened for their ability to inhibit PDK-1 using a radioactive-phosphate incorporation assay (Pitt and Lee, J. Biomol. Screen., (1996) 1, 47). Assays were carried out in a mixture of 100 mM HEPES (pH 7.5), 10 mM MgCl2, 25 mM NaCl, 2 mM DTT. Final substrate concentrations in the assay were 40 μM ATP (Sigma Chemicals) and 65 μM peptide (PDKtide, Upstate, Lake Placid, N.Y.). Assays were carried out at 30° C. and 25 nM PDK-1 in the presence of ˜27.5 nCi/μL of [γ-^32P]ATP (Amersham Pharmacia Biotech, Amersham, UK). An assay stock buffer solution was prepared containing all of the reagents listed above, with the exception of ATP, and the test compound of interest. 15 μl of the stock solution was placed in a 96 well plate followed by addition of 1 μl of 0.5 mM DMSO stock containing the test compound (final compound concentration 25 μM, final DMSO concentration […]). The plate was preincubated for about 10 minutes at 30° C. and the reaction initiated by addition of 4 μl ATP (final concentration 40 μM).
The reaction was stopped after 10 minutes by the addition of 100 μL 100 mM phosphoric acid, 0.01% Tween-20. A phosphocellulose 96 well plate (Millipore, Cat no. MAPHNOB50) was pretreated with 100 μL 100 mM phosphoric acid, 0.01% Tween-20 prior to the addition of the reaction mixture (100 μL). The spots were left to soak for at least 5 minutes, prior to wash steps (4×200 μL 100 mM phosphoric acid, 0.01% Tween-20). After drying, 20 μL Optiphase ‘SuperMix’ liquid scintillation cocktail (Perkin Elmer) was added to the well prior to scintillation counting (1450 Microbeta Liquid Scintillation Counter, Wallac).

`COC(=O)Nc1ccc(Nc2ncn(-c3ccnc(N4C[C@@H](C)N(C(C)=O)[C@@H](C)C4)c3)n2)cc1` [Compound I-78]: the Ki – broadly, the dissociation constant of the complex between target and ligand, obtained from inhibition or displacement – on Aurora-2 was under 100 nM.

Take `CC(=O)N1CCCN(c2cc(-n3cnc(Nc4ccccc4)n3)ccn2)CC1` [Compound I-66]: the Ki on Aurora-2 lay within 100 to 1000 nM.

`CC(=O)N1[C@H](C)CN(c2cc(-n3cnc(Nc4ccc(N)cc4)n3)ccn2)C[C@@H]1C` [Compound I-82]: at Aurora-2, the Ki was under 100 nM.

`c1ccc(Nc2ncn(-c3ccnc(N4CCCCCC4)c3)n2)cc1` [Compound I-73] yielded a Ki at Aurora-2 of under 100 nM.

For `CCOc1cccc(Nc2ncn(-c3ccccc3)n2)c1` [Compound I-45], at Aurora-2, the Ki was over 1000 nM.

On Aurora-2, `CCOC(=O)c1ccc(Nc2ncn(-c3ccnc(N4C[C@@H](C)N(C(C)=O)[C@@H](C)C4)c3)n2)cc1` [Compound I-75] gave a Ki of under 100 nM.

As for `CC(=O)N1[C@H](C)CN(c2cc(-n3cnc(Nc4ccc(N5CCOCC5)cc4)n3)ccn2)C[C@@H]1C` [Compound I-85, 1-(2,6-Dimethyl-4-{4-[3-(4-morpholin-4-yl-phenylamino)-[1,2,4]triazol-1-yl]-pyridin-2-yl}-piperazin-1-yl)-ethanone], at Aurora-2, the Ki is under 100 nM.

Turning to `CC(=O)N1[C@H](C)CN(c2cc(-n3cnc(Nc4ccc(NC(=O)C(F)(F)F)cc4)n3)ccn2)C[C@@H]1C` [Compound I-79], the Ki at Aurora-2 was under 100 nM.

Consider `c1ccc(-n2cnc(Nc3ccc(N4CCOCC4)nc3)n2)cc1` [Compound I-134], for which the Ki on PDK-1 is 1000 to 10000 nM.

As for `CC(C)Oc1cccc(Nc2ncn(-c3ccccc3)n2)c1` [Compound I-46], on Aurora-2, the inhibition constant Ki was over 1000 nM.

In the case of `OC[C@H]1CCCN(c2cc(-n3cnc(Nc4ccccc4)n3)ccn2)C1` [Compound I-65], the values for the Ki on PDK-1 and at Aurora-2 were 1000 to 10000 nM and 100 to 1000 nM, respectively.

The compound `COc1cc(Nc2ncn(-c3ccc(C#N)cc3)n2)cc(OC)c1OC` [Compound I-43] displayed a Ki on Aurora-2 of 100 to 1000 nM.

In turn, `CC(=O)N1[C@H](C)CN(c2cc(-n3cnc(Nc4ccc(NC(=O)OC(C)C)cc4)n3)ccn2)C[C@@H]1C` [Compound I-89] came in with a Ki on Aurora-2 of under 100 nM.

For the compound `CC(=O)N1[C@H](C)CN(c2cc(-n3cnc(Nc4ccc(NC(=O)N(C)C)cc4)n3)ccn2)C[C@@H]1C` [Compound I-77, 3-(4-{1-[2-(4-Acetyl-3,5-dimethyl-piperazin-1-yl)-pyridin-4-yl]-1H-[1,2,4]triazol-3-ylamino}-phenyl)-1,1-dimethyl-urea], on Aurora-2, the Ki is under 100 nM.

`COCC(=O)N1CCCN(c2cc(-n3cnc(Nc4ccccc4)n3)ccn2)CC1` [Compound I-71] came in with a Ki at Aurora-2 of 100 to 1000 nM.

As for `c1ccc(-n2cnc(Nc3ccnc(N4CCOCC4)c3)n2)cc1` [Compound I-105], the Ki on Aurora-2 lay within 100 to 1000 nM.

On Aurora-2, `CCCOC(=O)Nc1ccc(Nc2ncn(-c3ccnc(N4C[C@@H](C)N(C(C)=O)[C@@H](C)C4)c3)n2)cc1` [Compound I-88] showed a Ki of under 100 nM.

With `COc1cc(Nc2ncn(-c3ccccc3)n2)cc(OC)c1OC` [Compound I-42], the Ki is 1000 to 10000 nM on PDK-1 and 100 to 1000 nM on Aurora-2.

Turning to `CCC(=O)N1CCCN(c2cc(-n3cnc(Nc4ccccc4)n3)ccn2)CC1` [Compound I-67], the Ki at Aurora-2 lay in the range of 100 to 1000 nM.

In the case of `N#CCC(=O)N1CCCN(c2cc(-n3cnc(Nc4ccccc4)n3)ccn2)CC1` [Compound I-72], the Ki on Aurora-2 fell in the range of 100 to 1000 nM.

`CC(=O)N1[C@H](C)CN(c2cc(-n3cnc(Nc4ccccc4)n3)ccn2)C[C@@H]1C` [Compound I-74]: the values for the Ki at PDK-1 and on Aurora-2 were under 1000 nM and under 100 nM, respectively.
